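Cells were grown in 96-well plates and exposed to each compound for 48 hours at five concentrations; endpoints were interpolated linearly between bracketing concentrations, or set to the highest concentration if not reached. TGI marks complete inhibition of growth.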
How the values were obtained:
Assay in all cases: growth of human tumour cells (NCI), 48 h
[1] = system: CAKI-1 renal
[2] = system: ACHN renal
[3] = system: OVCAR-3 ovarian
[4] = system: HT29 colon
[5] = system: SN12C renal
[6] = system: KM12 colon
[7] = system: OVCAR-5 ovarian
[8] = system: 786-0 renal
[9] = system: MDA-N
[10] = system: SK-MEL-5 melanoma
[11] = system: OVCAR-8 ovarian
[12] = system: K-562 leukemia
[13] = system: SF-295 CNS
[14] = system: MDA-MB-435
[15] = system: SK-MEL-28 melanoma
[16] = system: UO-31 renal
[17] = system: HL-60(TB) leukemia
[18] = system: HOP-92 NSCLC
[19] = system: RXF 393 renal
[20] = system: RPMI-8226 leukemia
[21] = system: SF-539 CNS
[22] = system: UACC-257 melanoma
[23] = system: IGROV1 ovarian
[24] = system: HCT-15 colon
[25] = system: MCF7 breast
[26] = system: LOX IMVI melanoma
[27] = system: A498 renal
[28] = system: NCI-H460 lung
[29] = system: SW-620 colon
[30] = system: SR leukemia
[31] = system: NCI-H522 lung
[32] = system: PC-3 prostate
[33] = system: CCRF-CEM leukemia
[34] = system: SNB-19 CNS
[35] = system: NCI-H226 lung
[36] = system: HOP-62 NSCLC
[37] = system: HS 578T breast
[38] = system: TK-10 renal
[39] = system: BT-549 breast
[40] = system: MDA-MB-231 breast
[41] = system: OVCAR-4 ovarian
[42] = system: HCT-116 colon
[43] = system: HCC-2998 colon
[44] = system: A549 NSCLC
[45] = system: DU-145 prostate
[46] = system: EKVX NSCLC
[47] = system: NCI/ADR-RES ovarian
[48] = system: MALME-3M melanoma
[49] = system: COLO 205 colon
[50] = system: NCI-H23 lung
[51] = system: U251 CNS
[52] = system: SF-268 CNS
[53] = system: SNB-75 CNS
[54] = system: UACC-62 melanoma
[55] = system: MOLT-4 leukemia
[56] = system: SK-MEL-2 melanoma
[57] = system: M14 melanoma
[58] = system: SK-OV-3 ovarian

Measured: TGI

NC(Cc1ccc(OCc2ccccc2)cn1)C(=O)OCc1ccccc1 (stereo unspecified)
not listed: [52] | [53] | [54] | [55] | [56] | [57] | [58]
> 100 µM: all other assays above

C=CCCC(CCC=C)(C(=O)O)C(=O)O
not listed: [1] | [18] | [27] | [35] | [41] | [58]
> 100 µM: all other assays above

Cc1cccc(N2C(=O)C3c4[nH]c5ccccc5c4C4CCC(C(C)(C)C)CC4C3C2=O)c1C (stereo unspecified)
42.3 µM: [40]
83.4 µM: [51]
60.4 µM: [17]
not listed: [6] | [15] | [31] | [41] | [52] | [53]
> 100 µM: all other assays above

COc1nc(SC)nc2c1C(O)n1c(nc3ccccc31)S2 (stereo unspecified)
60.5 µM: [17]
59.6 µM: [13]
44.4 µM: [41]
94.9 µM: [47]
67.2 µM: [58]
95.4 µM: [50]
61.9 µM: [18]
47.7 µM: [29]
37.4 µM: [36]
80.9 µM: [11]
39.4 µM: [27]
30.4 µM: [42]
85.7 µM: [3]
96.8 µM: [51]
16.8 µM: [16]
97.7 µM: [38]
24.6 µM: [8]
91.2 µM: [25]
50.7 µM: [37]
44.7 µM: [54]
39.9 µM: [2]
69.1 µM: [31]
22.3 µM: [33]
not listed: [10] | [19] | [21] | [35] | [49] | [53]
> 100 µM: all other assays above

CN(C)CCCNC(=S)S
not listed: [16] | [43] | [53] | [54]
> 100 µM: all other assays above
